The results in this text go back to patent publication US10233173B2, “Substituted 1,2,3-triazoles as NR2B-selective NMDA modulators” (JANSSEN PHARMACEUTICA NV, priority 2016, dated 2019).

The term IC50 denotes the concentration needed to halve the response being measured.

Sequence of human GluN1/GluN2B NMDA receptors (Q13224 27-1484, other chains not shown): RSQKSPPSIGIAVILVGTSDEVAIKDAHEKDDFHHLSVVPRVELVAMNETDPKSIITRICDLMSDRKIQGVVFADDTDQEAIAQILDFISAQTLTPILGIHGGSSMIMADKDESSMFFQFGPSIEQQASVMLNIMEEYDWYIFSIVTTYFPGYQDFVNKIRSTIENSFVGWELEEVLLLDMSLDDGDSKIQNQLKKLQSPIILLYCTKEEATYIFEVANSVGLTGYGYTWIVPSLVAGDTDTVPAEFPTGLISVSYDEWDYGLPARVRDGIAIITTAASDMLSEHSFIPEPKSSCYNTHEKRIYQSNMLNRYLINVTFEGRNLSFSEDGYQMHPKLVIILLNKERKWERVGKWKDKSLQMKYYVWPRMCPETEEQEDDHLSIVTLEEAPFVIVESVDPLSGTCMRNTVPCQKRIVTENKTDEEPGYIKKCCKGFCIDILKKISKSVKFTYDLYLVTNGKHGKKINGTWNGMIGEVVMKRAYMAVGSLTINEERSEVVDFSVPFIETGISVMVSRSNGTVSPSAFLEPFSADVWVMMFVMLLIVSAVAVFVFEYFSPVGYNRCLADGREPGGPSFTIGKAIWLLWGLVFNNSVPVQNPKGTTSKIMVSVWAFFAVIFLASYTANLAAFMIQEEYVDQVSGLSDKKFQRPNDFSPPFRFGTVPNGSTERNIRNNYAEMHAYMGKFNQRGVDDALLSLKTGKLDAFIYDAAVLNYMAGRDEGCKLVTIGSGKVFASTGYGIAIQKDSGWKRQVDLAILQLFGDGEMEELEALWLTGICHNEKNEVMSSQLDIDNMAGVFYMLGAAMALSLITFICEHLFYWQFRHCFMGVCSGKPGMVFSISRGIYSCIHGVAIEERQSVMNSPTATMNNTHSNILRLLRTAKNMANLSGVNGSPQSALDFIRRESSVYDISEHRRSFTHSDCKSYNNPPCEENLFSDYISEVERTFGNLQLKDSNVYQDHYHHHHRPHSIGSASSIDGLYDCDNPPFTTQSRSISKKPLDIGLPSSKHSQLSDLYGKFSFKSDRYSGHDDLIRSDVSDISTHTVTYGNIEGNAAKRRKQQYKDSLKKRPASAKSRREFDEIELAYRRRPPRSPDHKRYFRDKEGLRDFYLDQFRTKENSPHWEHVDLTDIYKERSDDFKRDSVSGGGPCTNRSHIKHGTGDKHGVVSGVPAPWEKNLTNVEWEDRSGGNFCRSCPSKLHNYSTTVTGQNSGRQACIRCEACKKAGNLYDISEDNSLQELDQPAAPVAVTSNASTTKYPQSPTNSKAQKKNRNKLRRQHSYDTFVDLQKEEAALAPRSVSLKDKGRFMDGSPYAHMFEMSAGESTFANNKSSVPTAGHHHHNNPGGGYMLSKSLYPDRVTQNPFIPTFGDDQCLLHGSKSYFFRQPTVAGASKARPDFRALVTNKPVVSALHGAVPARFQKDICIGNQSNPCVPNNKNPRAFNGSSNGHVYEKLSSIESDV

One assay has as its target human GluN1/GluN2B NMDA receptors (Homo sapiens, UniProt Q05586+Q13224). Nature of the assay: Cell-based calcium flux (FLIPR) assay on cloned human NR1/NR2B ion channels expressed in mammalian cells. The settings on record: standard assay; glutamate at ~EC80; FLIPR calcium flux. Summed up: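 Calcium influx followed by FLIPR fluorescence after 5 min compound exposure and a further 5 min co-agonist challenge: 10 μM glycine with glutamate at ~EC80 (standard) or EC40 (HTS).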
A general note: Calcium assays in cells follow changes in intracellular calcium, usually with a dye or a luminescent sensor.
Consider `COc1ccnc(OCc2cn(-c3ccc(F)c(C(F)(F)F)c3)nn2)n1` [Example 442, 2-[[1-[4-Fluoro-3-(trifluoromethyl)phenyl]triazol-4-yl]methoxy]-4-methoxy-pyrimidine], for which the concentration for half-maximal inhibition (IC50) worked out at 0.072 µM.

As to `FC(F)c1cc(-n2cc(COc3nccc(N4CCCC4)n3)nn2)ccc1Cl` [Example 634, 2-[[1-[4-Chloro-3-(difluoromethyl)phenyl]triazol-4-yl]methoxy]-4-pyrrolidin-1-yl-pyrimidine], the IC50 was 0.012 µM. Same read-out and setting: next, `COCc1ccnc(OCc2cn(-c3ccc(C)c(OC(F)F)c3)nn2)n1` [Example 527, 2-[[1-[3-(Difluoromethoxy)-4-methyl-phenyl]triazol-4-yl]methoxy]-4-(methoxymethyl)pyrimidine]: 0.132 µM. For the molecule `Fc1ccc(-n2cc(COc3ncc(N4CC(C(F)F)C4)cn3)nn2)cc1C(F)F` [Example 421, 2-((1-(3-(Difluoromethyl)-4-fluorophenyl)-1H-1,2,3-triazol-4-yl)methoxy)-5-(3-(difluoromethyl)azetidin-1-yl)pyrimidine], the IC50 was determined as 0.227 µM. In the case of `CC1(F)CN(c2cnc(OCc3cn(-c4ccc(F)c(C(F)F)c4)nn3)nc2)C1` [Example 420, 2-((1-(3-(Difluoromethyl)-4-fluorophenyl)-1H-1,2,3-triazol-4-yl)methoxy)-5-(3-fluoro-3-methylazetidin-1-yl)pyrimidine], the IC50 turned out to be 0.26 µM.

As to `CC(F)(F)c1cc(-n2cc(COc3ncc(C#N)cn3)nn2)ccc1F` [Example 583, 2-[[1-[3-(1,1-Difluoroethyl)-4-fluoro-phenyl]triazol-4-yl]methoxy]pyrimidine-5-carbonitrile], the IC50 turned out to be 0.067 µM. With `COCc1ccnc(OCc2cn(-c3ccc(F)c(C(C)(F)F)c3)nn2)n1` [Example 570, 2-[[1-[3-(1,1-Difluoroethyl)-4-fluoro-phenyl]triazol-4-yl]methoxy]-4-(methoxymethyl)pyrimidine], the half-maximal inhibitory concentration (IC50) amounted to 0.011 µM.

As for `Cc1nc(OCc2cn(-c3ccc(F)c(C)c3F)nn2)ncc1Cl` [Example 650, 5-Chloro-2-[[1-(2,4-difluoro-3-methyl-phenyl)triazol-4-yl]methoxy]-4-methyl-pyrimidine], the half-inhibitory concentration (IC50) came out at 0.005 µM. Take `FC(F)Oc1cc(-n2cc(COc3ncc(N4CC(F)(F)C4)cn3)nn2)ccc1Cl` [Example 393, 2-((1-(4-Chloro-3-(difluoromethoxy)phenyl)-1H-1,2,3-triazol-4-yl)methoxy)-5-(3,3-difluoroazetidin-1-yl)pyrimidine]: the concentration for half-maximal inhibition (IC50) amounted to 0.037 µM. Take `Fc1ccc(-n2cc(COc3nccc(NC4CC4)n3)nn2)cc1C(F)F` [Example 690, N-Cyclopropyl-2-((1-(3-(difluoromethyl)-4-fluorophenyl)-1H-1,2,3-triazol-4-yl)methoxy)pyrimidin-4-amine]: the IC50 is 0.008 µM.

As to `COCc1ccnc(OCc2cn(-c3ccc(F)c(C)c3)nn2)n1` [Example 479, 2-[[1-(4-Fluoro-3-methyl-phenyl)triazol-4-yl]methoxy]-4-(methoxymethyl)pyrimidine], the IC50 was determined as 0.036 µM. `FCCOc1cnc(OCc2cn(-c3ccc(F)c(Br)c3)nn2)nc1` [Example 618, 2-[[1-(3-Bromo-4-fluoro-phenyl)triazol-4-yl]methoxy]-5-(2-fluoroethoxy)pyrimidine]: the IC50 turned out to be 0.006 µM. On the same count and under the same terms, next, `CNc1nc(OCc2cn(-c3ccc(F)c(C(F)(F)F)c3)nn2)ncc1F` [Example 451, 5-Fluoro-2-[[1-[4-fluoro-3-(trifluoromethyl)phenyl]triazol-4-yl]methoxy]-N-methyl-pyrimidin-4-amine]: 0.298 µM; `CN(C)c1ccnc(OCc2cn(-c3ccc(F)c(C(C)(F)F)c3)nn2)n1` [Example 582, 2-[[1-[3-(1,1-Difluoroethyl)-4-fluoro-phenyl]triazol-4-yl]methoxy]-N,N-dimethyl-pyrimidin-4-amine]: 0.028 µM. As for `CC(F)(F)c1cc(-n2cc(COc3ncc(N4CCC4)cn3)nn2)ccc1F` [Example 588, 5-(Azetidin-1-yl)-2-[[1-[3-(1,1-difluoroethyl)-4-fluoro-phenyl]triazol-4-yl]methoxy]pyrimidine], the half-inhibitory concentration (IC50) came to 0.034 µM. Still for that read-out and setting: next, `Cc1c(F)cccc1-n1cc(COc2ncc(C(C)(C)O)cn2)nn1` [Example 466, 2-[2-[[1-(3-Fluoro-2-methyl-phenyl)triazol-4-yl]methoxy]pyrimidin-5-yl]propan-2-ol]: 7.01 µM; `CC(F)(F)c1cc(-n2cc(COc3ncc(C4CC4)cn3)nn2)ccc1Cl` [Example 552, 2-[[1-[4-Chloro-3-(1,1-difluoroethyl)phenyl]triazol-4-yl]methoxy]-5-cyclopropyl-pyrimidine]: 0.086 µM.

Still in this assay, the particulars now being: standard assay; human GluN1/GluN2B, calcium flux (FLIPR), glutamate ~EC80.
As for `Fc1ccc(-n2cc(COc3ncc(C(F)(F)F)cn3)nn2)cc1C(F)F` [Example 50, 2-[[1-[3-(Difluoromethyl)-4-fluoro-phenyl]triazol-4-yl]methoxy]-5-(trifluoromethyl)pyrimidine], the IC50 was 0.007 µM. Take `COc1cc(Cl)cnc1OCc1cn(-c2ccc(Cl)c(OC(F)F)c2)nn1` [Example 106, 5-Chloro-2-[[1-[4-chloro-3-(difluoromethoxy)phenyl]triazol-4-yl]methoxy]-3-methoxy-pyridine]: the half-maximal inhibitory concentration (IC50) was determined as 0.276 µM. As to `COc1cccnc1OCc1cn(-c2ccc(Cl)c(OC(F)F)c2)nn1` [Example 108, 2-[[1-[4-Chloro-3-(difluoromethoxy)phenyl]triazol-4-yl]methoxy]-3-methoxy-pyridine], the IC50 is 0.114 µM. For `FC(F)c1cccc(-n2cc(COc3nccc(N4CCCC4)n3)nn2)c1` [Example 284, 2-[[1-[3-(Difluoromethyl)phenyl]triazol-4-yl]methoxy]-4-pyrrolidin-1-yl-pyrimidine], the IC50 was determined as 0.094 µM. As to `FC(F)Oc1cc(-n2cc(COc3ncccc3Cl)nn2)ccc1Cl` [Example 105, 3-Chloro-2-[[1-[4-chloro-3-(difluoromethoxy)phenyl]triazol-4-yl]methoxy]pyridine], the half-maximal inhibitory concentration (IC50) was determined as 0.059 µM. For the molecule `Cc1ccnc(OCc2cn(-c3ccc(Cl)c(OC(F)F)c3)nn2)n1` [Example 21, 2-[[1-[4-Chloro-3-(difluoromethoxy)phenyl]triazol-4-yl]methoxy]-4-methyl-pyrimidine], the IC50 turned out to be 0.002 µM. Consider `Cc1cnc(OCc2cn(-c3ccc(F)c(OC(F)F)c3)nn2)nc1` [Example 63, 2-[[1-[3-(Difluoromethoxy)-4-fluoro-phenyl]triazol-4-yl]methoxy]-5-methyl-pyrimidine], for which the IC50 stood at 0.003 µM.

With `CCc1cnc(OCc2cn(-c3cccc(C)c3)nn2)nc1` [Example 245, 5-Ethyl-2-[[1-(m-tolyl)triazol-4-yl]methoxy]pyrimidine], the concentration for half-maximal inhibition (IC50) is 0.01 µM.

Consider `CC(F)(F)c1cc(-n2cc(COc3nccc(-c4cn[nH]c4)n3)nn2)ccc1F` [Example 186, 2-[[1-[3-(1,1-Difluoroethyl)-4-fluoro-phenyl]triazol-4-yl]methoxy]-4-(1H-pyrazol-4-yl)pyrimidine], for which the 50% inhibitory concentration (IC50) worked out at 1.36 µM.

Regarding `Fc1ccc(-n2cc(COc3ncc(C(F)(F)F)cn3)nn2)cc1OC(F)F` [Example 62, 2-[[1-[3-(Difluoromethoxy)-4-fluoro-phenyl]triazol-4-yl]methoxy]-5-(trifluoromethyl)pyrimidine], the IC50 was 0.007 µM.

With `Cc1cnc(OCc2cn(-c3ccc(F)c(C(F)(F)F)c3)nn2)nc1` [Example 81, 2-[[1-[4-Fluoro-3-(trifluoromethyl)phenyl]triazol-4-yl]methoxy]-5-methyl-pyrimidine], the concentration for half-maximal inhibition (IC50) turned out to be 0.003 µM.

Take `Cc1cnc(OCc2cn(-c3ccc4c(c3)CCC4)nn2)nc1` [Example 366, 2-[(1-Indan-5-yltriazol-4-yl)methoxy]-5-methyl-pyrimidine]: the IC50 was 0.02 µM. Take `Fc1cnc(OCc2cn(-c3ccc(Cl)c(OC(F)F)c3)nn2)nc1` [Example 95, 2-[[1-[4-Chloro-3-(difluoromethoxy)phenyl]triazol-4-yl]methoxy]-5-fluoro-pyrimidine]: the IC50 was 0.023 µM. Take `CC(F)(F)c1cccc(-n2cc(COc3nccc(C(F)(F)F)n3)nn2)c1` [Example 304, 2-[[1-[3-(1,1-Difluoroethyl)phenyl]triazol-4-yl]methoxy]-4-(trifluoromethyl)pyrimidine]: the IC50 came to 0.711 µM.

Regarding `COc1cnc(OCc2cn(-c3cccc(F)c3)nn2)nc1` [Example 230, 2-[[1-(3-Fluorophenyl)triazol-4-yl]methoxy]-5-methoxy-pyrimidine], the half-maximal inhibitory concentration (IC50) was found to be 0.275 µM. In the case of `CC(F)(F)c1cc(-n2cc(COc3ncc(-c4cn[nH]c4)cn3)nn2)ccc1F` [Example 185, 2-[[1-[3-(1,1-Difluoroethyl)-4-fluoro-phenyl]triazol-4-yl]methoxy]-5-(1H-pyrazol-4-yl)pyrimidine], the concentration for half-maximal inhibition (IC50) is 0.166 µM. The same measure, in the same setting: next, `CC(F)(F)c1cccc(-n2cc(COc3ncc(N4CC(F)C4)cn3)nn2)c1` [Example 321, 2-[[1-[3-(1,1-Difluoroethyl)phenyl]triazol-4-yl]methoxy]-5-(3-fluoroazetidin-1-yl)pyrimidine]: 0.104 µM. Turning to `Cc1cnc(OC(C)c2cn(-c3ccc(Cl)c(OC(F)F)c3)nn2)nc1` (racemic) [Example 56, (R/S)-2-[1-[1-[4-Chloro-3-(difluoromethoxy)phenyl]triazol-4-yl]ethoxy]-5-methyl-pyrimidine], the half-maximal inhibitory concentration (IC50) was 0.028 µM.

With `Clc1cnc(OCc2cn(-c3ccc4c(c3)CCC4)nn2)nc1` [Example 367, 5-Chloro-2-[(1-indan-5-yltriazol-4-yl)methoxy]pyrimidine], the IC50 turned out to be 0.053 µM. Consider `FC(F)Oc1cnc(OCc2cn(-c3ccc(Cl)c(OC(F)F)c3)nn2)nc1` [Example 35, 2-[[1-[4-Chloro-3-(difluoromethoxy)phenyl]triazol-4-yl]methoxy]-5-(difluoromethoxy)pyrimidine], for which the IC50 stood at 0.006 µM. In the case of `Cc1cccc(-n2cc(COc3ncc(C)c(C)n3)nn2)c1` [Example 251, 4,5-Dimethyl-2-[[1-(m-tolyl)triazol-4-yl]methoxy]pyrimidine], the 50% inhibitory concentration (IC50) was 0.002 µM.
